molecular target: wild-type αHL protein pore (Staphylococcus aureus, UniProt P09616); format: binding
Sequence (P09616 27-319 limits assumed): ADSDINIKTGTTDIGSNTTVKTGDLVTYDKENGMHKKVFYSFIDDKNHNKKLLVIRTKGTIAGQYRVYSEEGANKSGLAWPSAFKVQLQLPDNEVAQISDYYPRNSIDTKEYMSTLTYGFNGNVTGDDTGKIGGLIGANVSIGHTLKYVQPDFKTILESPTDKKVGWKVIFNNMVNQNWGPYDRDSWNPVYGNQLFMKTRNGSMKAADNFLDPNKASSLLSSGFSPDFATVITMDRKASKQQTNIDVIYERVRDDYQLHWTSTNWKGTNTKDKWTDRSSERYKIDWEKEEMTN

| Compound | mean amplitude of analyte-boromycin complex events [pA] | τoff (mean dwell time) of analyte-boromycin complex [ms] | increase of event mean dwell time in BMIM-Cl versus NaCl [fold] |
| --- | --- | --- | --- |
| Cl.ClCCN1CCOCC1 [CM, 4-(2-chloroethyl)morpholine hydrochloride] | 33.5±1.2 | 34.7 ± 0.6 | – |
| CCNCC.Cl [DEA, diethylammonium chloride] | 33.6±0.8 | 40.5 ± 0.5 | – |
| CCN(CC)CC.Cl [TEA, triethylammonium chloride] | 33.7±0.4 | 60.6 ± 1.9 | – |
| NH4Cl [NH4^+] | 33.7±0.2 | 75.0 ± 1.6 | – |
| KCl [K^+] | 33.6±0.3 | 52.1 ± 0.3 | – |
| boromycin | – | – | 2.6 |
